Laboratory results reported in the supplement of paper PMC5770543.
± gives the standard deviation.

Key:
[1] = system: Plasmodium falciparum 3D7; experiment: % inhibition of schizont-to-ring transition vs DMSO; higher = more inhibition
In short: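 Tightly synchronised P. falciparum schizonts (about 40–42 hours post-invasion, 1% parasitemia, 2.5% hematocrit, AlbuMAX-supplemented RPMI) were exposed to compound at 1, 3 or 10 µM, with vehicle and positive controls. Cells were glutaraldehyde-fixed, Triton-permeabilised, stained with Hoechst 33342 and counted by flow cytometry (at least 100,000 events). Schizont-to-ring transition inhibition is new ring formation relative to vehicle controls, averaged over three experiments.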

[2] = system: Plasmodium falciparum 3D7; experiment: EC50 growth inhibition (60 h, SYBR Green); conditions: stage: ring-stage start
[3] = system: Toxoplasma gondii RH tachyzoites; experiment: % growth inhibition vs DMSO (48 h luciferase); higher = more inhibition; conditions: 10 µM
[4] = molecular target: Toxoplasma gondii RH tachyzoites; experiment: EC50 growth inhibition (48 h luciferase)
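For % growth inhibition vs DMSO (48 h luciferase) in this document: tested in triplicate wells of 96-well plates on confluent HFF monolayers, with 1% DMSO wells as negative control in four replicates.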

| SMILES | % inhibition of schizont-to-ring transition ([1]; 1 µM) [%] | % inhibition of schizont-to-ring transition ([1]; 3 µM) [%] | % inhibition of schizont-to-ring transition ([1]; 10 µM) [%] | EC50 growth inhibition [2] [nM] | % growth inhibition [3] [%] | EC50 growth inhibition [4] [nM] |
| --- | --- | --- | --- | --- | --- | --- |
| CCn1nc(-c2ccc(C(=O)OC)cc2)nc2c(=O)n(C)c(=O)nc1-2 | 30.7 | 37.6 | 53.3 | 107 | 100.5 ± 0.19 | 2200 |
| O=c1c2c([nH]c3ccccc13)CCCC2 | 13.7 | 22.2 | 42.9 | 1790 | 89.6 ± 1.1 | 1040 |
| Cc1cc(N2CCCC2)nc(Nc2ccc(NC(=O)CCc3ccccc3)cc2)n1 | 55.6 | 62.1 | 67.5 | 139 | 96.07 ± 0.93 | 102 |
| O=C(NC(c1ccccc1)c1ccc2cccnc2c1O)c1ccccc1 (stereo not given) | 13.5 | 35.6 | 53.7 | 3660 | 99.71 ± 0.23 | 770 |
| O=C1c2ccc3c4c(ccc(c24)C(=O)N1CCCCO)C(=O)N(CCCCO)C3=O | 9.23 | 16.9 | 64.2 | 4810 | 99.55 ± 0.29 | 421 |
| COc1cc(C(=O)Nc2ccc(-c3nc4ccccc4[nH]3)cc2)cc(OC)c1OC | < 0 | 9.26 | 43.1 | 788 | 91.42 ± 0.58 | 4730 |
| CCCCNc1nc(NC(C)(C)C)nc(NC(C)(C)C)n1 | 12.2 | 25.9 | 66.4 | 2760 | 93.8 ± 2.5 | 603 |
| CC1CC2=C(CC1CNCCCN(C)C)C(C)(C)CCC2 (stereo not given) | 9.39 | 52.2 | 73.9 | 618 | 99.59 ± 0.27 | 3170 |
| Oc1c(C(Nc2ccccn2)c2cccc(Oc3ccccc3)c2)ccc2cccnc12 (stereo not given) | 27.1 | 43.9 | 64.8 | 852 | 99.07 ± 0.26 | 1080 |
| COc1ccccc1N1C(=N)SC(=Cc2ccc(OCc3ccccc3F)cc2)C1=O | 14.8 | 30.1 | 52.5 | 4920 | 93.42 ± 0.8 | 978 |
| Cc1sc(NC(=O)c2ccccc2)c(C(c2cccs2)N2CCN(c3ccccc3)CC2)c1C (stereo not given) | 5.65 | 10.7 | 36.5 | 1930 | 88.7 ± 5.2 | 550 |
| CCOc1ccc(Nc2c3ccccc3nc3ccccc23)cc1 | 45.1 | 58.5 | 68.8 | 529 | 100.1 ± 0.26 | 884 |
| CN(C)c1ccc(C=Cc2nc(=O)c3ccccc3o2)cc1 | 44.1 | 60.6 | 70.1 | 522 | 99.12 ± 0.036 | 264 |
| Cc1cc(Nc2cccc(F)c2)nc(NCc2ccccc2)n1 | 43.1 | 60.2 | 70.5 | 149 | 97.33 ± 0.9 | 879 |
| Oc1ccc2ccccc2c1CNc1nc2ccccc2[nH]1 | 41.7 | 57.8 | 70.5 | 2930 | 95.1 ± 1.9 | 430 |
| COc1ccc(-c2nc(N3CCN(C(=O)C4CCCCC4)CC3)c3c4c(sc3n2)CCCC4)cc1 | 10.6 | 17.7 | 44.9 | 4080 | 86 ± 3.8 | 3080 |

| SMILES | % inhibition of schizont-to-ring transition ([1]; 1 µM) [%] | % inhibition of schizont-to-ring transition ([1]; 3 µM) [%] | % inhibition of schizont-to-ring transition ([1]; 10 µM) [%] | EC50 growth inhibition [2] [nM] | % growth inhibition [3] [%] | EC50 growth inhibition [4] [nM] |
| --- | --- | --- | --- | --- | --- | --- |
| CCCCCCc1cc(O)c2c3c(c(=O)oc2c1)CCC(C)C3 (stereo not given) | 18.6 | 34.9 | 52.4 | 3410 | 99.37 ± 0.72 | 471 |
| O=C1c2ccccc2C2=Nc3ccccc3SC(c3cccc(F)c3)C12 (stereo not given) | 15.1 | 29 | 37.5 | 283 | 99.31 ± 0.18 | 916 |
| Cc1sc(NC(=O)c2ccco2)c(C(c2cccnc2)N2CCC(Cc3ccccc3)CC2)c1C (stereo not given) | 6.59 | 41.7 | 62.4 | 833 | 99.83 ± 0.14 | 1120 |
| COCCNC(=O)c1ccc(OC2CCN(Cc3ccc(F)c(F)c3)CC2)c(Cl)c1 | 10.5 | 23.7 | 52.4 | 1250 | 97.36 ± 0.96 | 270 |
| OC1=C2C(=Nc3ccccc3SC2c2ccc(Br)cc2)c2ccccc21 (stereo not given) | 19.5 | 33.4 | 45.5 | 588 | 99.19 ± 0.75 | 803 |
| OC(CNCc1ccccc1)Cn1c2ccccc2c2ccccc21 (stereo not given) | 37.8 | 43 | 65.5 | 2200 | 48.3 ± 2 | 286 |
| COc1ccc(Nc2nc(NCc3ccccc3)c3ccccc3n2)cc1 | 26.4 | 34.8 | 48 | 104 | 100.5 ± 0.45 | 763 |
| O=c1nc(C=Cc2ccc(Cl)cc2)oc2ccccc12 | 16.8 | 24.1 | 56.2 | 999 | 94.2 ± 2.2 | 32.4 |
| CCOc1ccc(-c2nonc2NC(=O)c2cccc(C)c2)cc1OCC | 81.4 | 80 | 78.5 | 374 | 96.5 ± 1.9 | 1620 |
| CCN(CC)CCn1c(=N)n(CC(O)c2ccc(Cl)c(Cl)c2)c2ccccc21 (stereo not given) | 51 | 73.3 | 78.2 | 267 | 85.7 ± 6.1 | 1310 |
| O=C(Nc1ccc(CN2CCOCC2)cc1)c1ccc(-c2cc(Cl)ccc2Cl)o1 | 5.81 | 22.5 | 42.6 | 1230 | 81.1 ± 4.3 | 5590 |
| CCOC(=O)c1cn(CC)c2cc(N(C)CCc3ccc(OC)c(OC)c3)c(F)cc2c1=O | 36.8 | 60.5 | 66.7 | 210 | 97.69 ± 0.15 | 910 |
| O=c1nc(C=Cc2ccc(Br)cc2)oc2ccccc12 | 15.3 | 24.2 | 54 | 1770 | 99.06 ± 0.14 | 116 |
| CCN(CC)CCCNc1nc(-c2ccc(Cl)cc2)nc2ccccc12 | 44.9 | 45.1 | 58.3 | 3520 | 80.8 ± 4.8 | 122 |
| COc1ccc(C(=O)NC(c2ccccc2Cl)c2cc(Cl)c3cccnc3c2O)cc1 (stereo not given) | 13.2 | 31.2 | 57.7 |  | 96.55 ± 0.71 | 592 |
